Source: US11376264B2, “Use of bromodomain-containing protein 9 antagonists in combination with vitamin D receptor agonists in diabetes treatment” (Salk Institute for Biological Studies, priority 2017, dated 2022)

How the values were obtained:
VDR-BRD9 interaction = target: T1, VDR-BRD9 interaction (Homo sapiens, UniProt P11473+Q9H8M2); assay: Co-immunoprecipitation of VDR and BRD9 in 293T cells; format: cell-based; conditions: proteomic and Western blot
T1 construct: endogenous BRD9 co-immunoprecipitates with HA-tagged VDR; expressed in transfected cells; host or cells: 293T
T1 sequence (P11473 1-427): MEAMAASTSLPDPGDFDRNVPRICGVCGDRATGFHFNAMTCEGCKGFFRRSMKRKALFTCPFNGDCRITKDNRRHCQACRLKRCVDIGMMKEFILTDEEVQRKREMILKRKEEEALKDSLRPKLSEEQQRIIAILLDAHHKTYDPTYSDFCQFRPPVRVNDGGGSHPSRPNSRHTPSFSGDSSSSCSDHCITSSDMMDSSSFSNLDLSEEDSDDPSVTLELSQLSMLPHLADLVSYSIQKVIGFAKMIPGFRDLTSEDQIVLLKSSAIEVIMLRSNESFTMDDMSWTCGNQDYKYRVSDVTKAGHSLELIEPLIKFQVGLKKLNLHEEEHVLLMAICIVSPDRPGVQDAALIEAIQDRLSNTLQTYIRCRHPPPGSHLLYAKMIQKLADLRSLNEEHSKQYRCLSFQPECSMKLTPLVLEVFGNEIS
T1 sequence (Q9H8M2 1-597): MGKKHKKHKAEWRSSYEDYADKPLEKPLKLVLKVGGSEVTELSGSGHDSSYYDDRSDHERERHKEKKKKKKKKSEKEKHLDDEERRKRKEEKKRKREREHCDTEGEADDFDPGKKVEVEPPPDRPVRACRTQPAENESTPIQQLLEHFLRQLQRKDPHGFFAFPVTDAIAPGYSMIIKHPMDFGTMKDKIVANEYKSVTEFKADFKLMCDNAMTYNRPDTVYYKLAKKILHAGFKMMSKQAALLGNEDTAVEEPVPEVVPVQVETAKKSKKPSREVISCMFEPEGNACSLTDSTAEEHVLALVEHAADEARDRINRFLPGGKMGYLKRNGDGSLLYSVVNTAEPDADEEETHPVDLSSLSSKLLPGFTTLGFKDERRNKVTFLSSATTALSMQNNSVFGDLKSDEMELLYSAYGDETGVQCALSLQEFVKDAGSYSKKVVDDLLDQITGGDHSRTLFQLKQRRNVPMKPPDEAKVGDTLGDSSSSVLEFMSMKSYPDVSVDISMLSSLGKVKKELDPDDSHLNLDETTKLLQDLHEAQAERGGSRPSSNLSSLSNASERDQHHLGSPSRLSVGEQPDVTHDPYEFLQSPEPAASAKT
Protocol: Briefly, cells are lysed using ice-cold lysis buffer (HEPES 20 mM pH8, EDTA 0.2 mM, NaCl 0.3 mM, NP40 0.5%, 15% glycerol) for 15 min, and after centrifuging the supernatant was collected. For HA- or Flag-tagged proteins, immunoprecipitations were performed using HA-magnetic beads (Pierce, P188836), or Flag-magnetic beads (Sigma, M8823) for 1.5 hr at 4° C. For other immunoprecipitations, primary antibodies were incubated with lysates for 2 hr followed by Protein A magnetic beads (Life Technologies, 10001D). After 3 washes with wash buffer (HEPES 10 mM pH8, EDTA 0.2 mM, NaCl 0.3 mM, NP40 0.1%, 15% glycerol), the beads were boiled with NuPage LDS sample buffer and the lysates were stored at −20° C.

Nfkbia (IκBα) = assay: Nfkbia expression in IL1β-stressed INS1 cells (qPCR); format: cell-based, rat
Protocol: Samples were run in triplicate and expression was normalized to the levels of the housekeeping controls Rplp0 (36b4) for human and mouse. Samples were analyzed by qPCR, using SYBR Green dye (Bio-rad). Statistical comparisons were made using Student's t test. Error bars are mean±SEM. Primers used are shown below: INS1 cells were cultured at 37° C. in 5% C02 in air in RPMI-1640 (Sigma Aldrich) supplemented with 10% (v/v) fetal bovine serum, 1% (v/v) Antibiotic-Antimycotic (Gibco) 10 mM HEPES, 2 mM glutamax, 1 mM sodium pyruvate, and 50 μM β-mercaptoethanol (RPMI for INS1 medium). INS1 cells were transfected with Lipofectamine RNAiMAX (Invitrogen) for 24 hr, […] (VDR: L-097753-02-0005, PCAF: L-085879-02-0005, BAF180: L-088113-02-0005, non-targeting pool: D-001810-10-05).

human islets = assay: Human islets under cytokine stress, transmission electron microscopy; format: cell-based; conditions: 24 hours
Protocol: Mouse pancreatic islets were isolated as previously described (Yoshihara et al., 2010, Nat. Commun 1:127) with slight modification. Briefly, 0.5 mg/ml collagenase P (Roche REF 1213873001, diluted in HBSS buffer, GIBCO, 14170-112) was injected through the common bile duct, and the perfused pancreas dissected and incubated at 37° C. for 21 min. Digested exocrine cells and intact islets were separated via centrifugation (900×g for 15 min) over Histopaque-1077 (Sigma, H8889), and intact islets were manually selected. Human islets were provided by the Integrated Islets Distribution Program (see details below).
Islets in suspension were pelleted in 2% low melting point agarose and subsequently fixed in 2.5% glutaraldehyde with 2% paraformaldehyde in 0.15M cacodylate buffer containing 2 mM calcium chloride, pH 7.4, for one hour at 4° C. The pellet was trimmed down to contain the minimal amount of agarose possible, washed in buffer, and secondarily fixed in 1% osmium tetroxide/0.3% potassium ferrocyanide in buffer. Subsequently, the pellet was washed in water and en bloc stained with 2% uranyl acetate followed by a graded dehydration in ethanol (35%, 50%, 70%, 90%, 100%, 100%). […]

db/db (BKS) mice = assay: db/db (BKS) mouse T2D model treatment; format: in vivo
Protocol: The following mice strains were from Jackson: VDR KO (B6.129S4-Vdrtm1Mbd/J), B6 db (B6.BKS(D)-Leprdb/J), BKS db (BKS.Cg-Dock7m+/+ Leprdb/J), C57BL6/J. Animals were maintained in a specific pathogen-free animal facility on a 12-hr light-dark cycle at an ambient temperature of 23° C. Water and food were provided ad lib. All animal experiments used age-matched male mice. VDR KO and control littermate mice were maintained on a VDR KO rescue diet containing 21% calcium, 0.67% phosphorus, and 20% lactose supplemented with 4.4 U vitamin D per gram diet.
db/db (B6) mice were grouped based on glucose levels at the age of 5 weeks. Treatments were started from 6 weeks and animals were treated with vehicle (30% 2-Hydroxypropyl-β Cyclodextrin, Sigma, H-107) or drugs 3 times a week. […] For db/db (BKS) mice, treatment started from age of 10 weeks.
For immunohistochemistry, FFPE tissues sections were deparaffinized and antigen retrieval performed using Vector Antigen Unmasking buffer (H3301). VectaStain ABC kit and ImmPACT DAB substrate (Vector Lab) were used to develop signal. Antibodies used: Pro-insulin (R&D, MAB13361, 1:100), insulin (Abcam, ab7842, 1:100), MAFA (Novus, NB400-137, 1:50), NKX6-1 (Cell Signaling, 54551, 1:100), and Glucagon (Abcam, ab82270, 1:100). DAPI-containing mounting media ([…] mounting medium for fluorescence) was used for nuclear staining. Immunostaining was visualized by ZEISS 780 confocal microscopy analysis.
ELISA were performed per manufacturer's instructions: mouse insulin (Millipore, EZRMI-13K), mouse proinsulin (Mercodia, NC9088881).

## CCn1cc(-c2cccc(C(F)(F)F)c2)c2sc(C(=N)NC3CCS(=O)(=O)CC3)cc2c1=O [iBRD9]
VDR-BRD9 interaction
  interaction between VDR and BRD9: reduced the interaction between VDR and BRD9

## C=C1/C(=C\C=C2/CCC[C@]3(C)[C@@H]([C@H](C)/C=C/[C@@H](O)C4CC4)CC[C@@H]23)C[C@@H](O)C[C@@H]1O [Cal, calcipotriol]
Nfkbia (IκBα); 30 minutes IL1β exposure
  Nfkbia expression: increased
Nfkbia (IκBα); IL1β stress, after 24 hrs
  Nfkbia expression: not sufficient to induce a significant increase
Human islets
  cytokine-induced morphological degeneration (insulin granules, ER): partially rescues the morphological degeneration
db/db (BKS) mice; fasting
  serum insulin levels: higher fasting serum insulin levels
db/db (BKS) mice; i.p. 3 times a week
  fasting blood glucose / glucose management: only limited improvements
db/db (BKS) mice; immunohistochemistry of pancreatic sections
  ER stress markers Calnexin and PERK: reduced
db/db (BKS) mice; pancreas sections
  intracellular insulin level (immunofluorescence): rescued
